Reference: US4524146A, “Certain -2-heterocycle substituted pyrazoloquinolines” (Ciba-Geigy Corporation, priority 1982, dated 1985)

What was measured:
benzodiazepine receptor [1] = assay: in vitro benzodiazepine receptor binding assay (inhibition of specific binding of 2 nM tritiated diazepam); settings: membranes from rat fore-brain, 0°-5°, 30 minutes, pH7.5
Protocol: The benzodiazepine receptor binding properties indicative of the nervous system regulatory activity of said new compounds are determined in the receptor binding assay in vitro, e.g. as described in Nature 266, 732 (1977) or Proc. Nat. Acad. Sci. USA 74, 3805 (1977). Diazepam binds specifically and with high affinity to crude synaptosomal membrane preparations from rat fore-brain. This binding is inhibited by other anxiolytic compounds. When tritiated diazepem is used, the interaction of other drugs with said receptor can be readily assessed thus: membranes from rat fore-brain are incubated at 0°-5° for 30 minutes with 2 nM tritiated diazepam and various concentrations of the test substance in a buffer medium maintained at pH7.5. Solutions of the various concentrations of test substances are prepared by dilution of a 4.2 mM stock solution in dimethylacetamide-ethanol (1:10) with 50 mM pH7.5 Tris-HCl buffer. The membranes, containing the receptors with various amounts of tritiated diazepam, are filtered onto glass fiber filters, which are then analyzed in a liquid scintillation counter. The concentration of the compounds of this invention, required to inhibit the specific binding of 2 nM of tritiated diazepam by 50%, i.e. the IC50, is determined graphically.

benzodiazepine receptor [2] = assay: in vivo benzodiazepine receptor binding (3H-flunitrazepam); parameters: species or system mice or rats; settings: dose of about 30 mg/kg i.p.
Protocol: In vivo benzodiazepine receptor binding is determined essentially as described in Eur. J. Pharmacol. 48, 213 (1978) and Nature 275, 551 (1978).
Test compounds in a corn starch vehicle are administered orally or intraperitioneally to mice or rats. Thirty minutes later, 3H-flunitrazepam(2 nmoles/Kg in saline) is injected into the tail vein, and the animals are sacrificed 20 minutes after injection of the flunitrazepam. The brains are then assayed by determining radioactivity in a liquid scintillation counter for binding of the radioligand to the receptors. A decrease in the binding of 3H-flimotrazepam in the drug-treated animals (as compared with the binding observed in animals treated with vehicle alone) is indicative of benzodiazepine receptor binding by the test compound.

IC50 (benzodiazepine receptor [1]) | Structure (SMILES) | inhibition of flunitrazepam binding in vivo (benzodiazepine receptor [2])
~2 nM | O=c1c2c[nH]c3ccc(F)cc3c-2nn1-c1ncccn1 [Example 2, 8-fluoro-2-(2-pyrimidyl)-pyrazolo[4,3-c]quinolin-3(5H)-one] | –
~6 nM | O=c1c2c[nH]c3ccccc3c-2nn1-c1ncccn1 [Example 1, 2-(2-pyrimidyl)-pyrazolo[4,3-c]quinolin-3(5H)-one] | –
~0.3 nM | O=c1c2c[nH]c3ccccc3c-2nn1-c1nccs1 [Example 4, 2-(2-thiazolyl)-pyrazolo[4,3-c]quinolin-3(5H)-one] | inhibits flunitrazepam binding in vivo
